According to patent publication US8420820B2, “Pyrrolopyridinylpyrimidin-2-ylamine derivatives” (Merck Patent GmbH, priority 2008, dated 2013):

What was measured:
PDK1 = biological target: T1, PDK1 (Homo sapiens, UniProt O15530); assay: Test for the inhibition of PDK1 (flashplate, 33P-ATP); assay type: biochemical; conditions: His6-PDK1 3.4 nM, 4 μM ATP, 30° C., 60 min
T1 construct: His6 (N)
Experimental: The experimental batches are carried out in a flashplate system with 384 wells/microtitration plate.
In each case, the PDK1 sample His6-PDK1(SEQ ID NO: 2)(1-50)(3.4 nM), the PDK1 substrate biotin-bA-bA-[…] (SEQ ID NO: 3) (400 nM), 4 μM ATP (with 0.2 μCi of ^33P-ATP/well) and the test substance in 50 μl of conventional experimental solution per well are incubated at 30° C. for 60 min. The test substances are employed in corresponding concentrations (if desired in a dilution series). The control is carried out without test substance. The reaction is stopped using standard methods and washed. The activity of the kinase is measured via the incorporated radioactivity in top count. In order to determine the non-specific kinase reaction (blank value), the experimental batches are carried out in the presence of 100 nM staurosporin.
The radioactivity (decompositions per minute) of the blank value (no use of test substance in the presence of staurosporin) is subtracted from all other radioactivity values. The controls (kinase activity without test substance) are set equal to 100 percent and all other radioactivity values (after subtracting the blank value) are expressed set in relation thereto (for example in % of the control).
IC50 values (50% inhibition) are determined with the aid of statistics programmes, such as, for example, RS1.

[1] = test system: PDK1 kinase activity in PC3 cells (phospho-T308-PKB); assay: Cellular testing of PDK1 kinase inhibitors in PC3 cells (Luminex, phospho-T308-PKB); assay type: cell-based; conditions: Homo sapiens, PC-3, 0.5 h, 30 min with test substance, serum-free, phospho-T308-PKB by Luminex, read-out: IC50 [PC3 P-PKB Thr308]
Experimental: Method for the Cellular Testing of PDK1 Kinase Inhibitors in PC3 Cells.
The cellular assay for the determination of the PDK1 kinase activity is carried out as a Luminex assay in the 96-well format. PC3 cells are sown at 20,000 cells per well in 100 μl of medium (45% of […]/45% of Ham's F12/10% of FCS) and incubated on the following day for 30 min with a serial dilution of the test substance (7 concentrations) under serum-free conditions. The cells are subsequently lysed using 90 μl of lysis buffer (20 mM tris/HCl pH 8.0, 150 mM NaCl, 1% of NP40, 10% of glycerol, 1% of phosphatase inhibitor I, 1% of phosphatase inhibitor II, 0.1% of protease inhibitor cocktail III, 0.01% of benzonase) per well, and the lysates are separated off from insoluble cell constituents by means of centrifugation through a 96-well filter plate (0.65 μm). The lysates are incubated overnight at 4° C. with shaking with Luminex beads to which an anti-total PKB antibody is coupled. The detection is carried out on the following day by addition of a phospho-T308-PKB antibody and a species-specific […] secondary antibody. The detection of phospho-T308-PKB is carried out by measurement in a Luminex100 instrument by determination of 100 events per cavity in a measurement time of 60 sec. As pharmacological blank, the signals obtained from cells which have been treated with 10 μM staurosporin are subtracted from all other batches. The control value used for maximum phosphorylation of PKB on T308 are the signals from cells which have only been treated with the solvent (0.3% of DMSO). The values of the batches treated with test substance are calculated therefrom as percentage of control, and IC50 values are determined by means of RS1.

T1 sequence (O15530 51-556): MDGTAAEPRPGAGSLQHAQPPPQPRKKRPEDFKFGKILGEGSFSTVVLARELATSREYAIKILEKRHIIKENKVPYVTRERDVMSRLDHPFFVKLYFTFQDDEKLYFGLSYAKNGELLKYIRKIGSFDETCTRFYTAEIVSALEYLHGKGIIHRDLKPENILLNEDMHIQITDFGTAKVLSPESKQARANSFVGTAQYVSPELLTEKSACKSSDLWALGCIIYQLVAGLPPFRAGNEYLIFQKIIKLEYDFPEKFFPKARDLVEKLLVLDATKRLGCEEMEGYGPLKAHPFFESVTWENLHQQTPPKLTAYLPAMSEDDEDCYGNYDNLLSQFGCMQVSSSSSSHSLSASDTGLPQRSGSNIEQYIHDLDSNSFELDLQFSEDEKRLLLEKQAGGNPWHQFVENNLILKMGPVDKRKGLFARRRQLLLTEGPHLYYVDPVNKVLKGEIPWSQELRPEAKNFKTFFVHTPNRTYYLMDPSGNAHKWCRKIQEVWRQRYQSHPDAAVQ

Structure (SMILES)	IC50 (PDK1) [nM]	IC50 [1] [nM]
CCCCc1cc(-c2c[nH]c3ncc(-c4cnn(CCO)c4)cc23)nc(N)n1 [Compound A88, 2-{4-[3-(2-Amino-6-butylpyrimidin-4-yl)-1H-pyrrolo[2,3-b]pyridin-5-yl]pyrazol-1-yl}ethanol]	10 to 1000	1000 to 10000
CCCCc1cc(-c2c[nH]c3ncc(-c4cnn(C5CCN(C)CC5)c4)cc23)nc(N)n1 [Compound A89, 4-Butyl-6-{5-[1-(1-methylpiperidin-4-yl)-1H-pyrazol-4-yl]-1H-pyrrolo[2,3-b]-pyridin-3-yl}pyrimidin-2-ylamine]	10 to 1000	1000 to 10000
CCc1cc(-c2c[nH]c3ncc(-c4cnn(C(C)C(=O)Nc5ccc6[nH]ccc6c5)c4)cc23)nc(N)n1 (stereo not shown) [Compound A121, 2-{4-[3-(2-Amino-6-ethylpyrimidin-4-yl)-1H-pyrrolo[2,3-b]pyridin-5-yl]pyrazol-1-yl}-N-(1H-indol-5-yl)propionamide]	10 to 1000	1000 to 10000
CCc1cc(-c2c[nH]c3ncc(-c4cnn(CCN(C)C)c4)cc23)nc(N)n1 [Compound A1, 4-{5-[1-(2-dimethylaminoethyl)-1H-pyrazol-4-yl]-1H-pyrrolo[2,3-b]pyridin-3-yl}-6-ethylpyrimidin-2-ylamine]	10 to 1000	10000 to 20000
CCc1cc(-c2c[nH]c3ncc(-c4cnn(Cc5cccc(F)c5)c4)cc23)nc(N)n1 [Compound A98, 4-Ethyl-6-{5-[1-(3-fluorobenzyl)-1H-pyrazol-4-yl]-1H-pyrrolo[2,3-b]pyridin-3-yl}pyrimidin-2-ylamine]	10 to 1000	1000 to 10000
Nc1nc(-c2c[nH]c3ncccc23)cc(C2CCCCC2)n1 [Compound A105, 4-Cyclohexyl-6-(1H-pyrrolo[2,3-b]pyridin-3-yl)pyrimidin-2-ylamine]	10 to 1000	10000 to 20000
CC(C)n1cc(-c2cnc3[nH]cc(-c4cc(CCN5CCN(C)CC5)nc(N)n4)c3c2)cn1 [Compound A43, 4-[5-(1-Isopropyl-1H-pyrazol-4-yl)-1H-pyrrolo[2,3-b]pyridin-3-yl]-6-[2-(4-methylpiperazin-1-yl)ethyl]pyrimidin-2-ylamine]	10 to 1000	10000 to 20000
CCc1cc(-c2c[nH]c3ncc(-c4cnn(CC(=O)N5CCN(C)CC5)c4)cc23)nc(N)n1 [Compound A29, 2-{4-[3-(2-Amino-6-ethylpyrimidin-4-yl)-1H-pyrrolo[2,3-b]pyridin-5-yl]pyrazol-1-yl}-1-(4-methylpiperazin-1-yl)ethanone]	10 to 1000	10000 to 20000
CN(C)CCn1cc(-c2cnc3[nH]cc(-c4cc(CCN5CCN(C)CC5)nc(N)n4)c3c2)cn1 [Compound A41, 4-{5-[1-(2-Dimethylaminoethyl)-1H-pyrazol-4-yl]-1H-pyrrolo[2,3-b]pyridin-3-yl}-6-[2-(4-methylpiperazin-1-yl)ethyl]pyrimidin-2-ylamine]	10 to 1000	10000 to 20000
CCc1cc(-c2c[nH]c3ncc(-c4cnn(Cc5ccc(F)c(F)c5)c4)cc23)nc(N)n1 [Compound A99, 4-{5-[1-(3,4-Difluorobenzyl)-1H-pyrazol-4-yl]-1H-pyrrolo[2,3-b]pyridin-3-yl}-6-ethylpyrimidin-2-ylamine]	10 to 1000	10000 to 20000
CN1CCN(CCc2cc(-c3c[nH]c4ncccc34)nc(N)n2)CC1 [Compound A50, 4-[2-(4-Methylpiperazin-1-yl)ethyl]-6-(1H-pyrrolo[2,3-b]pyridin-3-yl)pyrimidin-2-ylamine]	1000 to 10000	10000 to 20000
CC(C)n1cc(-c2cnc3[nH]cc(-c4cc(CCCCO)nc(N)n4)c3c2)cn1 [Compound A40, 4-{2-Amino-6-[5-(1-isopropyl-1H-pyrazol-4-yl)-1H-pyrrolo[2,3-b]pyridin-3-yl]-pyrimidin-4-yl}butan-1-ol]	10 to 1000	1000 to 10000

The next lines start with the values.

IC50 (PDK1) [nM]	IC50 [1] [nM]	Structure (SMILES)
10 to 1000	1000 to 10000	CCCCc1cc(-c2c[nH]c3ncc(-c4cnn(C5CCN(C(C)=O)CC5)c4)cc23)nc(N)n1 [Compound A86, 1-(4-{4-[3-(2-Amino-6-butylpyrimidin-4-yl)-1H-pyrrolo[2,3-b]pyridin-5-yl]-pyrazol-1-yl}piperidin-1-yl)ethanone]
10 to 1000	1000 to 10000	CCCCc1cc(-c2c[nH]c3ncc(-c4cnn(CC(=O)N5CCCCC5)c4)cc23)nc(N)n1 [Compound A58, 2-{4-[3-(2-amino-6-butylpyrimidin-4-yl)-1H-pyrrolo[2,3-b]pyridin-5-yl]-pyrazol-1-yl}-1-piperidin-1-ylethanone]
10 to 1000	10000 to 20000	CCc1cc(-c2c[nH]c3ncc(-c4cnn(CC(=O)O)c4)cc23)nc(N)n1 [Compound A31, {4-[3-(2-Amino-6-ethylpyrimidin-4-yl)-1H-pyrrolo[2,3-b]pyridin-5-yl]pyrazol-1-yl}acetylic acid]
10 to 1000	10000 to 20000	CCc1cc(-c2c[nH]c3ncc(-c4cnn(CC5CCNC5)c4)cc23)nc(N)n1 (stereo not shown) [Compound A9]
10 to 1000	10000 to 20000	CC(C)n1cc(-c2cnc3[nH]cc(-c4cc(C5(O)CCCCC5)nc(N)n4)c3c2)cn1 [Compound A53, 1-{2-Amino-6-[5-(1-isopropyl-1H-pyrazol-4-yl)-1H-pyrrolo[2,3-b]pyridin-3-yl]-pyrimidin-4-yl}cyclohexanol]
10 to 1000	10000 to 20000	CCc1cc(-c2c[nH]c3ncc(-c4cnn(CC(=O)NC5CC5)c4)cc23)nc(N)n1 [Compound A52, 2-{4-[3-(2-Amino-6-ethylpyrimidin-4-yl)-1H-pyrrolo[2,3-b]pyridin-5-yl]pyrazol-1-yl}-N-cyclopropylacetamide]
10 to 1000	10000 to 20000	CCc1cc(-c2c[nH]c3ncc(-c4cnn(CC(=O)NC)c4)cc23)nc(N)n1 [Compound A51, 2-{4-[3-(2-Amino-6-ethylpyrimidin-4-yl)-1H-pyrrolo[2,3-b]pyridin-5-yl]pyrazol-1-yl}-N-methylacetamide]
10 to 1000	10000 to 20000	CCc1cc(-c2c[nH]c3ncc(-c4cnn(C5CCN(C(C)=O)CC5)c4)cc23)nc(N)n1 [Compound A46, 1-(4-{4-[3-(2-Amino-6-ethylpyrimidin-4-yl)-1H-pyrrolo[2,3-b]pyridin-5-yl]-pyrazol-1-yl}piperidin-1-yl)ethanone]
10 to 1000	10000 to 20000	CC(C)n1cc(-c2cnc3[nH]cc(-c4cc(CCn5ccnc5)nc(N)n4)c3c2)cn1 [Compound A110, 4-(2-Imidazol-1-ylethyl)-6-[5-(1-isopropyl-1H-pyrazol-4-yl)-1H-pyrrolo[2,3-b]-pyridin-3-yl]pyrimidin-2-ylamine]
10 to 1000	1000 to 10000	CCc1cc(-c2c[nH]c3ncc(-c4ccc(CN)cc4)cc23)nc(N)n1 [Compound A81, 4-[5-(4-Aminomethylphenyl)-1H-pyrrolo[2,3-b]pyridin-3-yl]-6-ethylpyrimidin-2-ylamine]
10 to 1000	10000 to 20000	CCc1cc(-c2c[nH]c3ncc(-c4cnn(CC(=O)NC5CCN(C)CC5)c4)cc23)nc(N)n1 [Compound A30, 2-{4-[3-(2-Amino-6-ethylpyrimidin-4-yl)-1H-pyrrolo[2,3-b]pyridin-5-yl]pyrazol-1-yl}-N-(1-methylpiperidin-4-yl)acetamide]
10 to 1000	1000 to 10000	CCCC(O)c1cc(-c2c[nH]c3ncc(-c4cnn(C(C)C)c4)cc23)nc(N)n1 (stereo not shown) [Compound A35, 1-{2-Amino-6-[5-(1-isopropyl-1H-pyrazol-4-yl)-1H-pyrrolo[2,3-b]pyridin-3-yl]-pyrimidin-4-yl}butan-1-ol]
10 to 1000	1000 to 10000	CCCCc1cc(-c2c[nH]c3ncc(-c4cnn(C5CCNCC5)c4)cc23)nc(N)n1 [Compound A87, 4-Butyl-6-[5-(1-piperidin-4-yl-1H-pyrazol-4-yl)-1H-pyrrolo[2,3-b]pyridin-3-yl]-pyrimidin-2-ylamine]
1000 to 10000	10000 to 20000	CCCC(O)c1cc(-c2c[nH]c3ncccc23)nc(N)n1 (stereo not shown) [Compound A48, 1-[2-Amino-6-(1H-pyrrolo[2,3-b]pyridin-3-yl)pyrimidin-4-yl]butan-1-ol]
